The values below come from patent US8691865B2 (AbbVie Inc., priority 2008, dated 2014).

The target in the first test is human Cav2.2 (Homo sapiens, UniProt Q00975). In words: Assessment of calcium channel activity using FLIPR (Ca2+ influx in IMR32 cells). The format is cell-based.
Chain of human Cav2.2 (Q00975 whole entry): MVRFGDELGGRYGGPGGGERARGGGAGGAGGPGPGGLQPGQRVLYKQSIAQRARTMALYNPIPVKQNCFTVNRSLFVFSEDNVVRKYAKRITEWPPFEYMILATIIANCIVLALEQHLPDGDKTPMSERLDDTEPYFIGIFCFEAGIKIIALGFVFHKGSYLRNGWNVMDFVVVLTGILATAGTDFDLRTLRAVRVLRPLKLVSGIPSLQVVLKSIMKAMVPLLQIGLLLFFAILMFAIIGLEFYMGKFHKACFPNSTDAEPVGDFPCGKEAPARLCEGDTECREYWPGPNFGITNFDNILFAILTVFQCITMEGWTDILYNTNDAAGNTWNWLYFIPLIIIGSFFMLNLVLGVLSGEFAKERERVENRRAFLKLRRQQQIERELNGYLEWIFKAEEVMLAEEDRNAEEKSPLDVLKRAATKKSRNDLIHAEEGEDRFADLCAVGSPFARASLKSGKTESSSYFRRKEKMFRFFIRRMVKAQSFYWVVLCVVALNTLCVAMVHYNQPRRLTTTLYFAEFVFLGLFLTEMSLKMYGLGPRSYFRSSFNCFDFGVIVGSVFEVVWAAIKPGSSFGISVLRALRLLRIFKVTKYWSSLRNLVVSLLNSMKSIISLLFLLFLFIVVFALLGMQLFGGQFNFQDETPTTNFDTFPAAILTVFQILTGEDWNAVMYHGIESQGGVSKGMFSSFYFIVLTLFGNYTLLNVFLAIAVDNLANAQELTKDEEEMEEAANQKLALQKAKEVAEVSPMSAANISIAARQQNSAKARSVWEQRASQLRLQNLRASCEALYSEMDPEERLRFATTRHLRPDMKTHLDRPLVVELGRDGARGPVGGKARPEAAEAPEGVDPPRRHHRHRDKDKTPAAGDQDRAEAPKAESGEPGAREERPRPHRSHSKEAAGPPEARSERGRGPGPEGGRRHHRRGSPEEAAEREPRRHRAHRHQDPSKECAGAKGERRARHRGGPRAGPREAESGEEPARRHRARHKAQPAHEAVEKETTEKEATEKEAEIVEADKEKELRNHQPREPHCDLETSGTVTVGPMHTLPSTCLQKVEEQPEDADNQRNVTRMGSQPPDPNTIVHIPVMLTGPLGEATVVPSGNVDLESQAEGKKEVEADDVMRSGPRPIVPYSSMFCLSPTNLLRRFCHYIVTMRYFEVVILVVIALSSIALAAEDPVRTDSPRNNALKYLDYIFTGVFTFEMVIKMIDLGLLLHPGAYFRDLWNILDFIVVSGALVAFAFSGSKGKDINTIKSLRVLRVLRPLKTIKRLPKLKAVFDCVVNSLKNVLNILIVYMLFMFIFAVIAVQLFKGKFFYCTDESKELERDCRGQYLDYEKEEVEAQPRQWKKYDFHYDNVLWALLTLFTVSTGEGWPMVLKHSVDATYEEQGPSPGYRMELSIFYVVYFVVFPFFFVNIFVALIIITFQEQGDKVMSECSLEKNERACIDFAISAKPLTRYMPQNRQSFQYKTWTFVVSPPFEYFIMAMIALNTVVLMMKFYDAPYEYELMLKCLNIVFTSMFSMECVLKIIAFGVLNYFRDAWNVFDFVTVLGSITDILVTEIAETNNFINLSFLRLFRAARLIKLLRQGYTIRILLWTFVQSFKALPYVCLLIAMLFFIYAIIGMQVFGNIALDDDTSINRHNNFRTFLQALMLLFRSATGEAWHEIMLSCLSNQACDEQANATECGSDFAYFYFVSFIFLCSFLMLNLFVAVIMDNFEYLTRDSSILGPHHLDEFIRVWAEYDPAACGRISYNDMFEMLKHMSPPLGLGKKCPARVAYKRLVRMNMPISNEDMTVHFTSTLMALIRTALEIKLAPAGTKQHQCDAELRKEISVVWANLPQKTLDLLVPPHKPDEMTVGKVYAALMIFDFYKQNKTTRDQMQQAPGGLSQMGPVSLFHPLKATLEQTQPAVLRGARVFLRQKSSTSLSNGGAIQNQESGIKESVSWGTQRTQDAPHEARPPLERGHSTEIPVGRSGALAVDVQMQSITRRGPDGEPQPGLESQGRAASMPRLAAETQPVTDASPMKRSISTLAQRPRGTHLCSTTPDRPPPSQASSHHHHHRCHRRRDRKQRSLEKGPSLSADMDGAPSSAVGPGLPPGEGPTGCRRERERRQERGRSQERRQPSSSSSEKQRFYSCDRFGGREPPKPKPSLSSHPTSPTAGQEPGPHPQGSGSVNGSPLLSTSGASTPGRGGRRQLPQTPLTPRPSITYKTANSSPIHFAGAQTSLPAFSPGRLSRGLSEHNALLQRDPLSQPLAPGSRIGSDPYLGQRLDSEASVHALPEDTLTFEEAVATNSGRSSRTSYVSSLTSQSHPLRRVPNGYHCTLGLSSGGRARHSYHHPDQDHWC
Chain of human Cav2.2 (P54289 25-956 partner limits assumed): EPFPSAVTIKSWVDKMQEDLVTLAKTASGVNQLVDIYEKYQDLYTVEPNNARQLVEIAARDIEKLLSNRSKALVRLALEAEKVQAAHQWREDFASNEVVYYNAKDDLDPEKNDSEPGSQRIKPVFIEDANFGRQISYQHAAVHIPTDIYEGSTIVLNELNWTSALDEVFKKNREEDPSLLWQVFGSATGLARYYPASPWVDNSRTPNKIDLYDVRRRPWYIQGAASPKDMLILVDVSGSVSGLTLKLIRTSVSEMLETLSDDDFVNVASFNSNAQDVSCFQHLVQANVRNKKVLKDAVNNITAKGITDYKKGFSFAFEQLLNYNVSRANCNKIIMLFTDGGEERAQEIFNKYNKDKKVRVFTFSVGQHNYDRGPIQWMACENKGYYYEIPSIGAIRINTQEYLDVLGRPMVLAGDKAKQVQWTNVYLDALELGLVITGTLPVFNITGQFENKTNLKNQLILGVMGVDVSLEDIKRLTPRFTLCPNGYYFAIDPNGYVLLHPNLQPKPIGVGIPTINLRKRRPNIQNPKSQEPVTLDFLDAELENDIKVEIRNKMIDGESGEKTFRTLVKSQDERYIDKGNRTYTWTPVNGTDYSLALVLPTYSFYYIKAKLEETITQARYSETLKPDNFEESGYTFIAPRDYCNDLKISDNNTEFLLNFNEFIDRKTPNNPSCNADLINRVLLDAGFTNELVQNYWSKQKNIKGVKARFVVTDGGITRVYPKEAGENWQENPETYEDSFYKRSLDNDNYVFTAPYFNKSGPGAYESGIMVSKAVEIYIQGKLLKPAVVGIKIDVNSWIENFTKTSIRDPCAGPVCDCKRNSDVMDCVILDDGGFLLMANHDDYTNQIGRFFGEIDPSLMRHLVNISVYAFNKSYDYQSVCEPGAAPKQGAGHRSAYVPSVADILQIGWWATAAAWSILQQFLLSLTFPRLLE
Chain of human Cav2.2 (P54289 957-1103 partner limits assumed): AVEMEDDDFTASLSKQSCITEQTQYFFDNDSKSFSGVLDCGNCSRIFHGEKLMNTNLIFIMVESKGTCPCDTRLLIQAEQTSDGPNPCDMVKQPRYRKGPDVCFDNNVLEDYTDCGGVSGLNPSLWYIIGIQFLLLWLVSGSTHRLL
Chain of human Cav2.2 (P54284 whole entry partner): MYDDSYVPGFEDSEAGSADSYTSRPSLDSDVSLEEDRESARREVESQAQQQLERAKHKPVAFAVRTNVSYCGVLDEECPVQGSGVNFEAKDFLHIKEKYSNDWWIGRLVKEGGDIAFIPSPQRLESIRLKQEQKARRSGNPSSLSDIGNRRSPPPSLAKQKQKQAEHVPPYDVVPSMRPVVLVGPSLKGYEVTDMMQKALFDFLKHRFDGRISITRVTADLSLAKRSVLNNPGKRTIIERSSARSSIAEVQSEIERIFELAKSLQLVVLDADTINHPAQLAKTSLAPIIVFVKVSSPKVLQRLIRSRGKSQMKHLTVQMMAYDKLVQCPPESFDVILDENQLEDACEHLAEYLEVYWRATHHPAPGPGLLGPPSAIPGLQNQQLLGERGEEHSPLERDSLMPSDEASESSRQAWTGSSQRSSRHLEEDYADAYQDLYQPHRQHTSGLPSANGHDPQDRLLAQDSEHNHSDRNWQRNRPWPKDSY
Details: not given
In short, it runs like this:
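Human neuroblastoma IMR32 cells were seeded at 1−1.2×10^5 cells/well and cultured 48 h at 37 °C before FLIPR calcium influx measurement. Percent inhibition at each concentration was calculated against the no-inhibitor signal, and IC50 came from sigmoidal dose-response fits.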
As to `O=C(N[C@H]1CC[C@H]2CN(Cc3ccccc3C(F)(F)F)C[C@H]21)C(C1CCCCC1)C1CCCCC1` [Example 60, 2,2-dicyclohexyl-N-{(3aS,4S,6aR)-2-[2-(trifluoromethyl)benzyl]octahydrocyclopenta[c]pyrrol-4-yl}acetamide], the IC50 stood at 2.43 µM.

Regarding `O=C(N[C@H]1CC[C@@H]2CN(c3ncccc3C(F)(F)F)C[C@@H]21)[C@@H]1C[C@@H](F)CN1` [Example 660, (4R)-4-fluoro-N-{(3aR,4S,6aS)-2-[3-(trifluoromethyl)pyridin-2-yl]octahydrocyclopenta[c]pyrrol-4-yl}-L-prolinamide], the IC50 was 7.03 µM.

As to `O=C(N[C@H]1CC[C@@H]2CN(c3ccccc3OC(F)(F)F)C[C@@H]21)[C@@H]1C[C@@H](F)CN1` [Example 656, (4R)-4-fluoro-N-{(3aR,4S,6aS)-2-[2-(trifluoromethoxy)phenyl]octahydrocyclopenta[c]pyrrol-4-yl}-L-prolinamide], the IC50 worked out at 2.16 µM.

Regarding `Fc1ccc2[nH]c(CN[C@H]3CC[C@@H]4CN(c5ccc(C(F)(F)F)cc5)C[C@@H]43)cc2c1` [Example 615, (3aR,4S,6aS)-N-[(5-fluoro-1H-indol-2-yl)methyl]-2-[4-(trifluoromethyl)phenyl]octahydrocyclopenta[c]pyrrol-4-amine], the IC50 was 13.7 µM.

`CN[C@@H](CC(C)C)C(=O)N[C@H]1CC[C@@H]2CN(c3cccc(C)c3)C[C@@H]21` [Example 636, N^2-methyl-N-[(3aR,4S,6aS)-2-(3-methylphenyl)octahydrocyclopenta[c]pyrrol-4-yl]-L-leucinamide]: the IC50 turned out to be 3.73 µM.

With `O=C(N[C@H]1CC[C@@H]2CN(c3cc(C(F)(F)F)ccn3)C[C@@H]21)[C@@H]1C[C@@H](F)CN1` [Example 637, (4R)-4-fluoro-N-{(3aR,4S,6aS)-2-[4-(trifluoromethyl)pyridin-2-yl]octahydrocyclopenta[c]pyrrol-4-yl}-L-prolinamide], the IC50 was determined as 20.5 µM.

For `Cc1nc(CN[C@H]2CC[C@@H]3CN(c4cccc(C(F)(F)F)n4)C[C@@H]32)c[nH]1` [Example 676, (3aR,4S,6aS)-N-[(2-methyl-1H-imidazol-4-yl)methyl]-2-[6-(trifluoromethyl)pyridin-2-yl]octahydrocyclopenta[c]pyrrol-4-amine], the 50% inhibitory concentration (IC50) turned out to be 4.2 µM.

Regarding `CN[C@H](C(=O)N[C@@H]1CC[C@H]2CN(Cc3ccc(F)cc3)C[C@H]21)C(C)C` [Example 369, N^1-[(3aS,4R,6aR)-2-(4-fluorobenzyl)octahydrocyclopenta[c]pyrrol-4-yl]-N^2-methyl-L-valinamide], the IC50 is > 16.4 µM.

For the compound `CN[C@@H](CC(C)(C)C)C(=O)N[C@H]1CC[C@@H]2CN(Cc3ccccc3)C[C@@H]21` [Example 355, N^1-[(3aR,4S,6aS)-2-benzyloctahydrocyclopenta[c]pyrrol-4-yl]-N^2,4-dimethyl-L-leucinamide], the half-inhibitory concentration (IC50) is > 30 µM.

With `CCCC(C(=O)NC1CCC2CN(Cc3ccc(F)cc3)CC21)N(C)C(=O)OC(C)(C)C` (single isomer, unassigned) [Example 318], the IC50 is 1.07 µM.

The test is the same for the next values; noted with them: read-out: IC50 (μM) or percent inhibition (* indicates 3 minute incubation, otherwise 60 minute); IC50; 60 minute pre-incubation with compound; IMR32 cells, 80 mM KCl depolarization.
As to `O=C(CCCC(c1ccc(F)cc1)c1ccc(F)cc1)N[C@@H]1CC[C@H]2CN(Cc3cccc(C(F)(F)F)c3)C[C@H]21` (relative stereo) [Example 142, 5,5-bis(4-fluorophenyl)-N-{(3aS*,4R*,6aR*)-2-[3-(trifluoromethyl)benzyl]octahydrocyclopenta[c]pyrrol-4-yl}pentanamide], the half-maximal inhibitory concentration (IC50) was determined as 0.86 µM.

With `CN[C@@H](CC(C)C)C(=O)N[C@@H]1CC[C@H]2CN(Cc3ccccc3)C[C@H]21` [Example 165, N^1-[(3aS,4R,6aR)-2-benzyloctahydrocyclopenta[c]pyrrol-4-yl]-N^2-methyl-L-leucinamide], the concentration for half-maximal inhibition (IC50) is > 30 µM.

For `CC(C)C[C@@H](NS(C)(=O)=O)C(=O)N[C@@H]1CC[C@H]2CN(Cc3cccc(C(F)(F)F)c3)C[C@H]21` [Example 171, N^2-(methylsulfonyl)-N^1-{(3aS,4R,6aR)-2-[3-(trifluoromethyl)benzyl]octahydrocyclopenta[c]pyrrol-4-yl}-D-leucinamide], the IC50 was determined as 6.16 µM.

What is called IC50 is the concentration at which inhibition is half-maximal.
